From patent EP3338775B1, “USE OF BUTYLIDENEPHTHALIDE” (Everfront Biotech Inc., priority 2015, dated 2017)
“And” between values parts separate entries of the source, which are not always exact repeats. Identical values can stand only once.

Key:
Format in all cases: cell-based
[1] = test system: pcDNA 3.0-Axl brain CSCs ^CD133+; test: Wound healing assay with pcDNA 3.0-Axl brain CSCs CD133+ (Axl overexpression); settings: BP 0, 25, 50, 62.5, 75 and 100 µg/ml for 24 hours, compared to pcDNA3.0-neo cells, Figure 14C
Protocol: (§1) In this research, to further investigate whether the capability of BP in inhibiting the metastasis of cancer stem cells is related to Axl, brain CSCs ^CD133+ was transfected with pcDNA3.0-Axl plasmid and pcDNA3.0-neo plasmid respectively by using Lipofectmine 2000 transfection reagent. Then, the transfected brain CSCs ^CD133+ and un-transfected brain CSCs ^CD133+ were selected by 200 to 600 µg/ml G418 at the same time to obtain brain CSCs ^CD133+ having pcDNA3.0-Axl plasmid (hereinafter referred to as "pcDNA 3.0-Axl brain CSCs ^CD133+") or brain CSCs ^CD133+ having pcDNA3.0-neo plasmid (hereinafter referred to as "pcDNA3.0-neo brain CSCs ^CD133+"). Both pcDNA 3.0-Axl brain CSCs ^CD133+ and pcDNA3.0-neo brain CSCs ^CD133+ were observed and photographed with the use of a microscope. Then, proteins were extracted from both cells to conduct Western blotting to determine the expressions of Axl protein and β-actin in the BP-treated brain CSCs ^CD133+. Yet another, pcDNA 3.0-Axl brain CSCs ^CD133+ and pcDNA3.0-neo brain CSCs ^CD133+ were treated with different concentrations (0, 25, 50, 62.5, 75 and 100 µg/ml) of BP for 24 hours. At the same time, the phenomenon of pcDNA 3.0-Axl brain CSCs ^CD133+ and pcDNA3.0-neo brain CSCs ^CD133+ migrate to the wound was observed and photographed at 0 and 24 hours during the BP treatment.

[2] = test system: malignant glioma DBTRG cells; test: MTT cell viability assay on malignant glioma DBTRG cells; settings: 24-hour group
Protocol: Thereafter, a cell viability assay, MTT assay, was utilized to analyze the viabilities of brain CSCs ^CD133+ and malignant glioma DBTRG cells. […] The results are shown in Figure 1A and Figure 1B for 24-hour group and 48-hour group (i.e., the treatment for 24 hours and 48 hours) and in Table 1 for 24-hour group.

[3] = test system: Axl and Gas6 proteins, Axl gene; test: Western blotting and RT-PCR of Axl and Gas6 in brain CSCs CD133+; settings: BP 0, 12.5, 25, 50, 62.5 and 75 µg/ml for 24 hours, Figures 9A, 9B
Protocol: It has been known that the expression of Axl (i.e., a receptor tyrosine kinase) is related to the ability of cancer stem cells in proliferation, anti-apoptosis, migration and invasion. Brain CSCs ^CD133+ was treated with different concentrations (0, 12.5, 25, 50, 62.5 and 75 µg/ml) of BP for 24 hours, and then, proteins and total RNA were extracted from the cells to conduct Western blotting and reverse transcriptase-polymerase chain reaction (RT-PCR) to determine the expressions of Axl and Gas6 (i.e., a ligand of Axl) proteins and the expression of Axl gene in the BP-treated brain CSCs ^CD133+.

[4] = test system: HNC-TIC-like oral stem cells (ALDH1^+CD44^+-1 cell line or ALDH1^+CD44^+-2 cell line); test: Soft agar colony formation assay with HNC-TIC-like oral stem cells; settings: BP 0, 25 and 50 µg/ml for 24 hours
Protocol: In this research, a soft agar colony formation assay was used to investigate the effect of BP on inhibiting the tumor initiating activity of cancer stem cells. First, HNC-TIC-like oral stem cells (i.e., ALDH1^+CD44^+-1 cell line or ALDH1^+CD44^+-2 cell line) were treated with different concentrations (0, 25 and 50 µg/ml) of BP for 24 hours, and then, the treated cells of each group was separately seeded in the top agar [containing DMEM (Dulbecco's Modified Eagle's Medium medium), 10 % (v/v) Fetal Calf Serum (FCS) and 0.3 % (w/v) agar] (purchased from Sigma-Aldrich) at an initial cell number of 2×10^4. On the other hand, a six-well culture dish was coated with the bottom agar [containing DMEM, 10 % (v/v) FCS and 0.6 % (w/v) agar] (purchased from Sigma-Aldrich), 2 ml for each well. After the bottom agar was solidified, each group of the top agar (containing oral cancer stem cells) was respectively added onto the bottom agar in different wells of the dish, 2 ml for each well. […] Lastly, the bottom agar was stained with 0.005 % crystal violet, the number of colonies (with a diameter ≥100 µm) was counted over five fields per well with the use of a microscope, and those fields were photographed. The relative colony-forming ability of cells of each experimental group was calculated based on the result of the group treated with 0 µg/ml of BP.

[5] = test system: pcDNA3.0-neo brain CSCs ^CD133+; test: Wound healing assay with pcDNA3.0-neo brain CSCs CD133+; settings: without Axl overexpression; BP 0, 25, 50, 62.5, 75 and 100 µg/ml for 24 hours; Figure 14C
Protocol: as §1

[6] = test system: HNC-TIC-like oral stem cells (ALDH1^+CD44^+-1 cell line, ALDH1^+CD44^+-2 cell line); test: MTT viability assay on HNC-TIC-like oral stem cells; settings: BP 0, 25, 50 and 100 µg/ml for 24 hours; both cell lines; Figure 2
Protocol: NHOKs (normal human oral keratinocytes) and HNC-TIC (head and neck cancer-derived tumor initiating cell)-like oral stem cells (i.e., ALDH1^+CD44^+-1 cell line or ALDH1^+CD44^+-2 cell line) were treated with different concentrations (0, 25, 50 and 100 µg/ml) of BP for 24 hours, and then, an MTT assay was utilized to analyzed the viabilities of NHOKs and HNC-TIC-like oral stem cells (i.e., ALDH1^+CD44^+-1 cell line and ALDH1^+CD44^+-2 cell line).

[7] = test system: Sox-2 and Oct4 proteins; test: Western blotting of stemness-maintenance markers in HNC-TIC-like oral stem cells; settings: BP 0, 12.5, 25 and 50 µg/ml for 24 hours; both cell lines; Figure 7
[8] = test system: E-cadherin, TGFβ-1 and Slug; test: Western blotting of EMT-related proteins in brain CSCs CD133+; settings: BP 0, 12.5, 25, 50, 62.5 and 75 µg/ml for 24 hours, Figure 12
Protocol: In has been known that at the start of the epithelial-mesenchymal transition (EMT) of cancer stem cells, the expression of E-cadherin would reduce and the aggregation force between cancer stem cells would decrease, so that the cancer stem cells would gain great invasion and migration capacity and depart from the primary tumor, and thus, could metastasize. Brain CSCs ^CD133+ was treated with different concentrations (0, 12.5, 25, 50, 62.5 and 75 µg/ml) of BP for 24 hours, and then, proteins were extracted from the cells to conduct Western blotting to determine the expressions of E-cadherin, TGFβ-1 (with an ability to induce EMT) and Slug (i.e., a member of Snail family transcriptional repressors with a property of promoting the metastasis of cancer cells) proteins in the BP-treated brain CSCs ^CD133+.

## CCCC=C1OC(=O)c2ccccc21 [BP, butylidenephthalide]
[1]
  suppression of the number of pcDNA 3.0-Axl brain CSCs ^CD133+ migrated to the wound: not quite significant
[2]
  IC50: 400 µM and 75.3 µg/mL
[3]
  expressions of Axl and Gas6 proteins and the expression of Axl gene: significantly decreased
[4]; 4 weeks culture, Figure 15A
  number of colonies in the bottom agar: significantly decreased
[4]; relative to 0 µg/ml group, Figure 15B
  relative colony-forming ability of cancer stem cells: decreased along with the increment in the concentration of BP
[5]
  number of pcDNA3.0-neo brain CSCs ^CD133+ migrated to the wound: significantly decreased
[6]
  viability of HNC-TIC-like oral stem cells: decreased along with the increment in the concentration of BP
[7]
  expressions of Sox-2 and Oct4 proteins in the HNC-TIC-like oral stem cells: significantly decreased
[8]
  expression of E-cadherin protein: significantly increased
  expressions of TGFβ-1 and Slug proteins: significantly decreased
